Assay results reported in the CheMixHub viscosity set.
± gives the uncertainty stated by the source.

Assay: xn = mol fraction of the nth substance listed

CC(C)=O + c1ccccc1
Settings	viscosity [mPa·s]
293.15 K, 101 kPa, x1 = 0.086	0.598 ± 0.012
293.15 K, 101 kPa, x1 = 0.1	0.592 ± 0.012
293.15 K, 101 kPa, x1 = 0.1304	0.581 ± 0.015
293.15 K, 101 kPa, x1 = 0.248	0.535 ± 0.011
293.15 K, 101 kPa, x1 = 0.269	0.528 ± 0.011
293.15 K, 101 kPa, x1 = 0.287	0.513 ± 0.013
293.15 K, 101 kPa, x1 = 0.4005	0.47 ± 0.012
293.15 K, 101 kPa, x1 = 0.408	0.471 ± 0.01
293.15 K, 101 kPa, x1 = 0.5661	0.416 ± 0.011
293.15 K, 101 kPa, x1 = 0.587	0.414 ± 0.009
293.15 K, 101 kPa, x1 = 0.6783	0.385 ± 0.01
293.15 K, 101 kPa, x1 = 0.767	0.376 ± 0.008
293.15 K, 101 kPa, x1 = 0.7899	0.357 ± 0.009
293.15 K, 101 kPa, x1 = 0.864	0.362 ± 0.008
293.15 K, 101 kPa, x1 = 0.9053	0.332 ± 0.009
293.16 K, 101 kPa, x1 = 0.1304	0.581 ± 0.016
293.16 K, 101 kPa, x1 = 0.287	0.513 ± 0.014
293.16 K, 101 kPa, x1 = 0.4005	0.47 ± 0.013
293.16 K, 101 kPa, x1 = 0.5661	0.416 ± 0.011
293.16 K, 101 kPa, x1 = 0.6783	0.385 ± 0.01
293.16 K, 101 kPa, x1 = 0.7899	0.357 ± 0.01
293.16 K, 101 kPa, x1 = 0.9053	0.332 ± 0.009
298.15 K, 101 kPa, x1 = 0.092	0.5569 ± 0.0057
298.15 K, 101 kPa, x1 = 0.1304	0.534 ± 0.014
298.15 K, 101 kPa, x1 = 0.1895	0.5185 ± 0.0053
298.15 K, 101 kPa, x1 = 0.2364	0.4968 ± 0.0051
298.15 K, 101 kPa, x1 = 0.287	0.484 ± 0.013
298.15 K, 101 kPa, x1 = 0.2986	0.4766 ± 0.005
298.15 K, 101 kPa, x1 = 0.3321	0.4654 ± 0.0049
298.15 K, 101 kPa, x1 = 0.4005	0.446 ± 0.012
298.15 K, 101 kPa, x1 = 0.4076	0.4368 ± 0.0046
298.15 K, 101 kPa, x1 = 0.4692	0.4188 ± 0.0045
298.15 K, 101 kPa, x1 = 0.49	0.4158 ± 0.0044
298.15 K, 101 kPa, x1 = 0.5552	0.3985 ± 0.0043
298.15 K, 101 kPa, x1 = 0.5608	0.3975 ± 0.0043
298.15 K, 101 kPa, x1 = 0.5661	0.401 ± 0.01
298.15 K, 101 kPa, x1 = 0.6629	0.3692 ± 0.004
298.15 K, 101 kPa, x1 = 0.6783	0.375 ± 0.01
298.15 K, 101 kPa, x1 = 0.7262	0.3546 ± 0.0039
298.15 K, 101 kPa, x1 = 0.7691	0.3451 ± 0.0038
298.15 K, 101 kPa, x1 = 0.7899	0.351 ± 0.009
298.15 K, 101 kPa, x1 = 0.808	0.3384 ± 0.0038
298.15 K, 101 kPa, x1 = 0.8946	0.3203 ± 0.0036
298.15 K, 101 kPa, x1 = 0.9053	0.33 ± 0.009
298.16 K, 101 kPa, x1 = 0.1304	0.534 ± 0.014
298.16 K, 101 kPa, x1 = 0.287	0.484 ± 0.013
298.16 K, 101 kPa, x1 = 0.4005	0.446 ± 0.012
298.16 K, 101 kPa, x1 = 0.5661	0.401 ± 0.011
298.16 K, 101 kPa, x1 = 0.6783	0.375 ± 0.01
298.16 K, 101 kPa, x1 = 0.7899	0.351 ± 0.009
298.16 K, 101 kPa, x1 = 0.9053	0.33 ± 0.009
303.15 K, 101 kPa, x1 = 0.086	0.523 ± 0.011
303.15 K, 101 kPa, x1 = 0.1	0.518 ± 0.011
303.15 K, 101 kPa, x1 = 0.248	0.475 ± 0.01
303.15 K, 101 kPa, x1 = 0.269	0.469 ± 0.01
303.15 K, 101 kPa, x1 = 0.2875	0.456 ± 0.012
303.15 K, 101 kPa, x1 = 0.408	0.423 ± 0.009
303.15 K, 101 kPa, x1 = 0.4185	0.417 ± 0.011
303.15 K, 101 kPa, x1 = 0.5098	0.392 ± 0.01
303.15 K, 101 kPa, x1 = 0.5498	0.382 ± 0.01
303.15 K, 101 kPa, x1 = 0.587	0.375 ± 0.008
303.15 K, 101 kPa, x1 = 0.6652	0.356 ± 0.009
303.15 K, 101 kPa, x1 = 0.767	0.346 ± 0.008
303.15 K, 101 kPa, x1 = 0.7851	0.331 ± 0.009
303.15 K, 101 kPa, x1 = 0.864	0.332 ± 0.007
303.15 K, 101 kPa, x1 = 0.8895	0.312 ± 0.008
303.16 K, 101 kPa, x1 = 0.2875	0.456 ± 0.012
303.16 K, 101 kPa, x1 = 0.4185	0.417 ± 0.011
303.16 K, 101 kPa, x1 = 0.5098	0.392 ± 0.011
303.16 K, 101 kPa, x1 = 0.5498	0.382 ± 0.01
303.16 K, 101 kPa, x1 = 0.6652	0.356 ± 0.01
303.16 K, 101 kPa, x1 = 0.7851	0.331 ± 0.009
303.16 K, 101 kPa, x1 = 0.8895	0.312 ± 0.008
307.35 K, 101.33 kPa, x1 = 0.1115	0.492 ± 0.0092
307.35 K, 101.33 kPa, x1 = 0.3573	0.419 ± 0.0086
307.35 K, 101.33 kPa, x1 = 0.4938	0.382 ± 0.0083
307.35 K, 101.33 kPa, x1 = 0.5562	0.374 ± 0.0082
307.35 K, 101.33 kPa, x1 = 0.6464	0.352 ± 0.008
307.35 K, 101.33 kPa, x1 = 0.8853	0.308 ± 0.0077
313.15 K, 101 kPa, x1 = 0.086	0.464 ± 0.01
313.15 K, 101 kPa, x1 = 0.1	0.46 ± 0.01
313.15 K, 101 kPa, x1 = 0.248	0.424 ± 0.009
313.15 K, 101 kPa, x1 = 0.269	0.419 ± 0.009
313.15 K, 101 kPa, x1 = 0.408	0.378 ± 0.008
313.15 K, 101 kPa, x1 = 0.587	0.344 ± 0.008
313.15 K, 101 kPa, x1 = 0.767	0.32 ± 0.007
313.15 K, 101 kPa, x1 = 0.864	0.309 ± 0.007
323.15 K, 101 kPa, x1 = 0.086	0.436 ± 0.009
323.15 K, 101 kPa, x1 = 0.1	0.436 ± 0.009
323.15 K, 101 kPa, x1 = 0.248	0.404 ± 0.009
323.15 K, 101 kPa, x1 = 0.269	0.4 ± 0.009
323.15 K, 101 kPa, x1 = 0.408	0.361 ± 0.008
323.15 K, 101 kPa, x1 = 0.587	0.33 ± 0.007
323.15 K, 101 kPa, x1 = 0.767	0.309 ± 0.007
